For this experiment, the target named is Neuronal acetylcholine receptor alpha9/alpha10 (Homo sapiens). The experiment is described as follows: Partial agonist activity at human alpha9alpha10 nAChR expressed as xenopus laevis oocytes assessed as increase in receptor desensitization measured after 120 secs by two-electrode voltage-clamp electrophysiology method. In general terms: Two-electrode voltage clamp is typically applied to oocytes expressing channels or transporters.

As a reminder, the EC50 is the concentration at which the effect is half-maximal. As to `CC[N+]1(C)CCN(c2ccc(NC(C)=O)cc2)CC1`, the EC50 was 640 nM.

For the origin of these results see BindingDB's records for PubMed 38748608 (University of Florida).
